Assay results reported in paper PMC4628094, “In Vitro Assessment of Uptake and Lysosomal Sequestration of Respiratory Drugs in Alveolar Macrophage Cell Line NR8383” (Pharmaceutical Research, 2015).
Where two headings read alike, the source gives them in different places.

Key:
[1] = tested on: Mouse peritoneal macrophages; parameters: method as in ref (1) (a number printed in a supplementary file, which may have a reference list of its own: not looked up in the article's list); settings: drug 50 µM, 120 min, ref (1), cited from earlier work
[2] = tested on: Lung tissue slices from male Sprague-Dawley rats; settings: desipramine, diazepam 5 µM, chloroquine, thiopental 10 µM, 60 min, ref (3), cited from earlier work
[3] = tested on: Liver tissue slices from male Sprague-Dawley rats; parameters: method as in ref (3) (a number printed in a supplementary file, which may have a reference list of its own: not looked up in the article's list); settings: desipramine 5 µM, chloroquine 10 µM, 60 min, ref (3), cited from earlier work
[4] = tested on: Hepatocytes isolated from male Wistar rats; settings: NH4Cl 10 mM, 15 min, ref (2), cited from earlier work
[5] = tested on: Lung granule fraction containing lysosomes from male Wistar rats; parameters: method as in ref (6) (a number printed in a supplementary file, which may have a reference list of its own: not looked up in the article's list); settings: NH4Cl 10 mM, drug 1 µM, 10 min; ref (6); cited from earlier work
[6] = tested on: Liver tissue slices from male Wistar rats; parameters: method as in ref (7) (a number printed in a supplementary file, which may have a reference list of its own: not looked up in the article's list); settings: NH4Cl 3 mg/min/kg (i.v. infusion), drug 3.2 mg/kg (i.v. injection), 360 min, ref (7); cited from earlier work
[7] = tested on: Lung tissue slices from male Wistar rats; parameters: method as in ref (7) (a number printed in a supplementary file, which may have a reference list of its own: not looked up in the article's list); settings: NH4Cl 3 mg/min/kg (i.v. infusion), drug 3.2 mg/kg (i.v. injection), 360 min, ref (7); cited from earlier work
NR8383 cells [8] = assay: LysoTracker Red (LTR) confocal assessment of lysosomal sequestration in NR8383; assay type: cell-based, rat; settings: drug 5 μM co-incubated with 200 nM LTR, 1 h
NR8383 cells [9] = settings: NR8383, 5 μM drug, 5 min
[10] = Uptake kinetics of clarithromycin in NR8383, two-step method; assay type: in vitro ADME, rat; settings: rat, incubation media of NR8383 cells; NR8383 incubation media; read-out: fraction unbound in the media (fumed)
NR8383 cells [11] = assay: as above; assay type: in vitro ADME, rat; settings: in the presence of NH4Cl
NR8383 cells [12] = tested on: NR8383 cells
[13] = experimental value; ref ([21])-([30]) per drug, Table I; cited from earlier work
[14] = tested on: NR8383 cell line and granule fraction (containing lysosomes); settings: ref ([12]), cited from earlier work
[15] = Physicochemical properties, experimental literature values (Table I); settings: classification in Table I
NR8383 cells [16] = assay: Lysosomal sequestration studies in NR8383 with NH4Cl, monensin and nigericin; settings: for Reduction in uptake clearance (%): preliminary optimisation; for % Reduction in Kp by NH4Cl: NH4Cl 20 mM; for % Reduction in Kp by Monensin: monensin 5 μM; for % Reduction in Kp by Monensin / % Reduction in Kp by Nigericin: 5 min; for % Reduction in Kp by Nigericin: nigericin 10 μM; for reduction in Kp in the presence of chemical agents (summary in Discussion): NR8383, NH4Cl, monensin, nigericin
NR8383 cells [17] = assay: Accumulation (Kp) in NR8383 over a concentration range, two-site binding model; settings: apparent saturable uptake equilibrium constant, two-site binding model, control
NR8383 cells [18] = assay: Drug uptake in NR8383 at 37 and 4°C (CLuptake, CLdiff, Kp); settings: for Contribution of passive (%): NR8383, 5 μM, CLdiff relative to CLuptake
[19] = Lysosomal sequestration studies in NR8383 with NH4Cl, monensin and nigericin; settings: rat; for Kp at 10 min, 5 μM: NR8383, 5 μM drug; for Kp at 10 min, 20 µM: NR8383, 20 µM drug
[20] = Accumulation (Kp) in NR8383 over a concentration range, two-site binding model; settings: rat, control
[21] = Drug uptake in NR8383 at 37 and 4°C (CLuptake, CLdiff, Kp); settings: rat

CN [Methylamine]
Reduction in total uptake (%) ([1]; NH4Cl 10 mM): 54% | Reduction of total uptake (%) ([1]; nigericin 5 µg/ml (~7 µM)): 49%

CCN(CC)CCCC(C)Nc1ccnc2cc(Cl)ccc12 (stereo not shown) [Chloroquine]
Reduction in total uptake (%) ([2]; NH4Cl 20 mM): 66% | Reduction of total uptake (%) ([2]; monensin 10 µM): 73% | Reduction in total uptake (%) ([3]; NH4Cl 20 mM): 53% | Reduction of total uptake (%) ([3]; monensin 10 µM): 44% | Reduction in total uptake (%) ([4]; drug 10 µM): 93% | Reduction in total uptake (%) ([4]; drug 100 µM): 77% | Reduction in total uptake (%) [5]: 87%

OC(CCN1CCCCC1)(c1ccccc1)C1CC2C=CC1C2 (stereo not shown) [Biperiden]
Reduction in total uptake (%) [6]: 2.5% | Reduction in total uptake (%) [7]: 77% | Reduction in total uptake (%) [5]: 56%

CC[C@H]1OC(=O)[C@H](C)[C@@H](O[C@H]2C[C@@](C)(OC)[C@@H](O)[C@H](C)O2)[C@H](C)[C@@H](O[C@@H]2O[C@H](C)C[C@H](N(C)C)[C@H]2O)[C@](C)(OC)C[C@@H](C)C(=O)[C@H](C)[C@@H](O)[C@]1(C)O [Clarithromycin]
reduction in LTR accumulation (NR8383 cells [8]): 86% | % Reduction in Kp by Monensin (NR8383 cells [9]; monensin 5 μM): 77% | % Reduction in Kp by Nigericin (NR8383 cells [9]; nigericin 10 μM): 82% | fraction unbound [10]: 0.93 ± 0.03 | Km (NR8383 cells [11]; active uptake): 28.5 µM | Vmax (NR8383 cells [11]; active uptake): 12.4 pmol/min/10^6 cells | total CLuptake from kinetic parameters (NR8383 cells [11]): 0.46 μL/min/10^6 cells | cytotoxicity (LDH) compared to positive control (NR8383 cells [12]; drug 50 μM): < 3% | cytotoxicity (LDH) compared to positive control (NR8383 cells [12]; drug 100 μM): 10% | LogD7.4 [13]: 1.57 | Kp ([14]; NR8383, 10 min, 37°C, initial concentration 50 μM): ~ 16 | reduction in Kp at 4°C compared to 37°C ([14]; NR8383): 90% | reduction of amount of drug in the cells by NH4Cl ([14]; NR8383): approximately half | reduction of fraction of drug in the granules compartment (containing the lysosomes) by NH4Cl ([14]; NR8383): 75% | Acid–base Property [15]: Base | Reduction in uptake clearance (%) (NR8383 cells [16]; 5 µM drug, + 10 mM NH4Cl): 85% | Reduction in uptake clearance (%) (NR8383 cells [16]; 5 µM drug, + 20 mM NH4Cl): 93% | Reduction in uptake clearance (%) (NR8383 cells [16]; 5 µM drug, + 50 mM NH4Cl): 94% | Reduction in uptake clearance (%) (NR8383 cells [16]; 20 µM drug, + 10 mM NH4Cl): 85% | Reduction in uptake clearance (%) (NR8383 cells [16]; 20 µM drug, + 20 mM NH4Cl): 89% | Reduction in uptake clearance (%) (NR8383 cells [16]; 20 µM drug, + 50 mM NH4Cl): 93% | % Reduction in Kp by NH4Cl (NR8383 cells [16]; NR8383, 5 μM drug): 84 ± 6.6 % | % Reduction in Kp by Monensin (NR8383 cells [16]; NR8383, 5 μM drug): 77 ± 8.5 % | % Reduction in Kp by Nigericin (NR8383 cells [16]; NR8383, 5 μM drug): 82 ± 9.6 % | % Reduction in Kp by NH4Cl (NR8383 cells [16]; NR8383, 20 µM drug): 75 ± 8.3 % | % Reduction in CLuptake by Monensin (5 µM) (NR8383 cells [16]; NR8383, at 5 µM drug): 78 ± 8.0 % | % Reduction in CLuptake by NH4Cl (20 mM) (NR8383 cells [16]; NR8383, at 5 µM drug): 85 ± 7.5 % | % Reduction in CLuptake by Nigericin (10 µM) (NR8383 cells [16]; NR8383, at 5 µM drug): 84 ± 9.2 % | % Reduction in CLuptake by NH4Cl (20 mM) (NR8383 cells [16]; NR8383, at 20 µM drug): 78 ± 9.0 % | reduction of Kp and CLuptake in the presence of NH4Cl and monensin/nigericin (NR8383 cells [16]; NR8383, summary in Abstract): 59–85% | reduction in Kp in the presence of chemical agents (summary in Discussion) (NR8383 cells [16]): ≥ 65% | KU1 (NR8383 cells [17]): 1.18 ± 1.45 µM | Contribution of passive (%) (NR8383 cells [18]): 0.53% | mean uptake of 5 μM clarithromycin across experiments (NR8383 cells [18]; control of individual experiments, n = 59): 5.50 ± 2.96 μl/min/10^6 cells

OC(CCN1CCCCC1)(c1ccccc1)C1CCCCC1 (stereo not shown) [Trihexyphenidyl]
Reduction in total uptake (%) [6]: 11% | Reduction in total uptake (%) [7]: 68% | Reduction in total uptake (%) [5]: 54%

COc1ccc(CC(C)NCC(O)c2ccc(O)c(NC=O)c2)cc1 (stereo not shown) [Formoterol]
cytotoxicity (LDH) compared to positive control (NR8383 cells [12]; high drug concentrations (50 and 100 μM per method), not stated at the place): less than 5% | LogD7.4 [13]: 2.60 | Acid–base Property [15]: Base | Kp at 10 min, 5 μM ([19]; Kp + NH4Cl, 20 mM NH4Cl co-incubated, 10 min): 15.5 ± 1.16 | Kp at 10 min, 20 µM ([19]; Kp + NH4Cl, 20 mM NH4Cl): 19.2 ± 4.13 | Kp at 10 min, 5 μM ([19]; Kp Control, control): 20.8 ± 3.6 | Kp at 10 min, 20 µM ([19]; Kp Control, control): 26.5 ± 6.54 | % Reduction in Kp by NH4Cl (NR8383 cells [16]; NR8383, 5 μM drug): 24 ± 9.0% | % Reduction in Kp by Monensin (NR8383 cells [16]; NR8383, 5 μM drug): 40 ± 7.5% | % Reduction in Kp by Nigericin (NR8383 cells [16]; NR8383, 5 μM drug): 27 ± 5.1 % | % Reduction in Kp by NH4Cl (NR8383 cells [16]; NR8383, 20 µM drug): 27 ± 8.1 % | % Reduction in CLuptake by Monensin (5 µM) (NR8383 cells [16]; NR8383, at 5 µM drug): 41 ± 5.6% | % Reduction in CLuptake by NH4Cl (20 mM) (NR8383 cells [16]; NR8383, at 5 µM drug): 25 ± 14% | % Reduction in CLuptake by Nigericin (10 µM) (NR8383 cells [16]; NR8383, at 5 µM drug): 19 ± 12% | % Reduction in CLuptake by NH4Cl (20 mM) (NR8383 cells [16]; NR8383, at 20 µM drug): 27 ± 13% | reduction in Kp in the presence of chemical agents (summary in Discussion) (NR8383 cells [16]): 20–40% | Kp at 10 min ([20]; Kp,max, sum of Kp,U1,max and Kp,min): 69 | Kp at 10 min ([20]; Kp,min, NR8383, 37°C, concentration range, two-site binding model): 10 ± 0.92 | KU1 (NR8383 cells [17]): 1.54 ± 0.49 µM | Kp at 10 min, 5 μM [21]: 24.5 ± 8.71 | Contribution of passive (%) (NR8383 cells [18]): 3.71%
